# Measured values as given in ChEMBL document CHEMBL5034037, “Synthesis, Characterization, and Preclinical Evaluation of a Small-Molecule Prostate-Specific Membrane Antigen-Targeted Monomethyl Auristatin E Conjugate” (J Med Chem, 2021).
# Active and inactive are the calls of the source. The calls are words filed in the database; no cut-off is given here. *1 amine or outer side, *2 acyl side, *3 side chain or, on linkers, in order; H or OH if unused. Where a SMILES comes first, the peptide text is derived from it. [ ]: non-standard residue; d: D form. The star is where a group is joined. GluureaLys(ε-3-ClBenzyl) = O=C(O)CC[C@H](NC(=O)N[C@@H](CCCCN(Cc1cccc(Cl)c1)*)C(=O)O)C(=O)O; Dolaproine = CO[C@@H]([C@@H]1CCCN1)[C@@H](C)C(=O)O; Dil = CC[C@H](C)[C@H](NC)[C@@H](CC(=O)O)OC; X1 = O=C(CCCc1cn(CCCN[*:1])nn1)[*:2]; PABC = O=C(OCc1ccc(N[*:1])cc1)[*:2]; X2 = C[C@@H](N*)[C@@H](O)c1ccccc1; Cit = NC(=O)NCCC[C@H](N)C(=O)O; Suc = O=C(CCC(=O)[*:2])[*:1]; NMeV = CN[C@H](C(=O)O)C(C)C; Ahx = NCCCCCC(=O)O
# Assays:
# [1] = Toxicity in rabbit assessed as morphological changes in lumen of trachea at 81 to 122 microg/kg, iv; format: tissue-based, Oryctolagus cuniculus; conditions: in vivo, dose 81-122 µg/kg
# Salmonella typhimurium [2] = test: Mutagenecity in Salmonella typhimurium TA97 without metabolic activation system at 10000 ug/ml by Ames test; format: toxicity, organism-based; conditions: salmonella enterica subsp. enterica serovar typhimurium; dose 10000 µg/ml
# [3] = Chronic toxicity in rabbit assessed as mortality rate at 5.4 microg/kg, iv dosed measured at day 4; format: organism-based, Oryctolagus cuniculus; conditions: in vivo, 0.0054 mg/kg, dose 5.4 µg/kg, read-out: Activity
# [4] = Toxicity in rabbit assessed as morphological changes in cerebrum at 81 to 122 microg/kg, iv; format: tissue-based, Oryctolagus cuniculus; conditions: in vivo, dose 81-122 µg/kg
# [5] = Toxicity in rabbit assessed as morphological changes in heart at 81 to 122 microg/kg, iv; format: tissue-based, Oryctolagus cuniculus; conditions: in vivo, dose 81-122 µg/kg
# [6] = Toxicity in rat assessed as morphological changes in duodenum at 150 to 225 microg/kg, iv; format: tissue-based; conditions: in vivo, dose 150-225 µg/kg
# [7] = Toxicity in rabbit assessed as morphological changes in mucosa of thyroid gland at 81 to 122 microg/kg, iv; format: tissue-based, Oryctolagus cuniculus; conditions: in vivo, dose 81-122 µg/kg
# [8] = Toxicity in rabbit assessed as thrombosis at 81 to 122 microg/kg, iv; set-up: species or system Oryctolagus cuniculus; conditions: in vivo, dose 81-122 µg/kg
# Salmonella typhimurium [9] = test: Mutagenecity in Salmonella typhimurium TA98 without metabolic activation system at 10 ug/ml by Ames test; format: toxicity, organism-based; conditions: salmonella enterica subsp. enterica serovar typhimurium; dose 10 µg/ml
# [10] = Toxicity in rat assessed as morphological changes in aortic intima at 150 to 225 microg/kg, iv; conditions: in vivo, dose 150-225 µg/kg
# [11] = Toxicity in rat assessed as morphological changes in loops of colon at 150 to 225 microg/kg, iv; format: tissue-based; conditions: in vivo, dose 150-225 µg/kg
# [12] = Toxicity in rabbit assessed as hemorrhage at 81 to 122 microg/kg, iv; set-up: species or system Oryctolagus cuniculus; conditions: in vivo, dose 81-122 µg/kg
# [13] = Toxicity in rabbit morphological change in mucosae of mouth at 81 to 122 microg/kg, iv; format: tissue-based, Oryctolagus cuniculus; conditions: in vivo, dose 81-122 µg/kg
# [14] = Elimination rate constant in Wistar rat at 1.5 mg/kg, iv; format: ADME, organism-based; conditions: in vivo
# CWR22R = test: Induction morphological changes in human 22Rv1 cells assessed as decrease in cell membrane stiffness measured upto 1 hr; format: functional, cell-based; conditions: time hrs <=1
# [15] = Toxicity in rat assessed as morphological changes in brain ventricle at 150 to 225 microg/kg, iv; format: tissue-based; conditions: in vivo, dose 150-225 µg/kg
# [16] = Chronic toxicity in rat assessed as mortality rate at 10 microg/kg, iv dosed measured after 3 days; format: organism-based; conditions: in vivo, 0.01 mg/kg, dose 10 µg/kg, time 3 day, read-out: Activity
# [17] = Stability of the compound in human liver microsome assessed as half life; format: ADME; conditions: liver microsomes
# Salmonella typhimurium [18] = test: Mutagenecity in Salmonella typhimurium TA98 without metabolic activation system at 10000 ug/ml by Ames test; format: toxicity, organism-based; conditions: salmonella enterica subsp. enterica serovar typhimurium; dose 10000 µg/ml
# [19] = Toxicity in rabbit assessed as morphological changes in liver at 81 to 122 microg/kg, iv; format: tissue-based, Oryctolagus cuniculus; conditions: in vivo, dose 81-122 µg/kg
# Salmonella typhimurium [20] = test: Mutagenecity in Salmonella typhimurium TA97 in presence of metabolic activation system at 100 ug/ml by Ames test; format: toxicity, organism-based; conditions: salmonella enterica subsp. enterica serovar typhimurium; dose 100 µg/ml
# [21] = Antitumor activity against human PC-3 cells xenografted in mouse assessed as tumour growth inhibition at 0.3 mg/kg, ip daily treated for 5 days after 18 days of tumor implantation measured upto 15 days; format: functional; conditions: PC-3, ip, 120 h, time 5 day, read-out: TGI
# [22] = Toxicity in rabbit assessed as morphological changes in cerebral membrane at 81 to 122 microg/kg, iv; set-up: species or system Oryctolagus cuniculus; conditions: in vivo, dose 81-122 µg/kg
# [23] = Antitumor activity against human 22Rv1 cells xenografted in mouse assessed as tumour growth inhibition at 0.3 mg/kg, ip daily treated for 5 days after 18 days of tumor implantation measured upto 15 days; format: functional, CWR22R; conditions: 22Rv1, ip, 120 h, time 5 day, read-out: TGI
# Salmonella typhimurium [24] = test: Mutagenecity in Salmonella typhimurium TA100 without metabolic activation system at 10 ug/ml by Ames test; format: toxicity, organism-based; conditions: salmonella enterica subsp. enterica serovar typhimurium; dose 10 µg/ml
# [25] = Toxicity in rabbit assessed as histological change in spermatagonia in seminiferous tubule in testes at 81 to 122 microg/kg, iv; set-up: species or system Oryctolagus cuniculus; conditions: in vivo, dose 81-122 µg/kg
# Salmonella typhimurium [26] = test: Mutagenecity in Salmonella typhimurium TA100 without metabolic activation system at 1 ug/ml by Ames test; format: toxicity, organism-based; conditions: salmonella enterica subsp. enterica serovar typhimurium; dose 1 µg/ml
# [27] = Ratio of AUC (t to infinity) to AUC (0 to infinity) in rabbit plasma at 0.81 mg/kg, iv; format: ADME, organism-based, Oryctolagus cuniculus; conditions: in vivo
# [28] = Stability of the compound in mouse liver microsome assessed as half life; format: ADME; conditions: liver microsomes
# Salmonella typhimurium [29] = test: Mutagenecity in Salmonella typhimurium TA100 without metabolic activation system at 1000 ug/ml by Ames test; format: toxicity, organism-based; conditions: salmonella enterica subsp. enterica serovar typhimurium; dose 1000 µg/ml
# [30] = Chronic toxicity in rat assessed as diarrhea at 10 microg/kg, iv; conditions: in vivo, 0.01 mg/kg, dose 10 µg/kg
# Cytochrome P450 1A2 = molecular target: T1, Cytochrome P450 1A2 (Homo sapiens, UniProt P05177); test: Inhibition of CYP1A2 in human liver microsome using phenacetin as substrate; format: ADME, microsomes
# T1 sequence (P05177 whole entry): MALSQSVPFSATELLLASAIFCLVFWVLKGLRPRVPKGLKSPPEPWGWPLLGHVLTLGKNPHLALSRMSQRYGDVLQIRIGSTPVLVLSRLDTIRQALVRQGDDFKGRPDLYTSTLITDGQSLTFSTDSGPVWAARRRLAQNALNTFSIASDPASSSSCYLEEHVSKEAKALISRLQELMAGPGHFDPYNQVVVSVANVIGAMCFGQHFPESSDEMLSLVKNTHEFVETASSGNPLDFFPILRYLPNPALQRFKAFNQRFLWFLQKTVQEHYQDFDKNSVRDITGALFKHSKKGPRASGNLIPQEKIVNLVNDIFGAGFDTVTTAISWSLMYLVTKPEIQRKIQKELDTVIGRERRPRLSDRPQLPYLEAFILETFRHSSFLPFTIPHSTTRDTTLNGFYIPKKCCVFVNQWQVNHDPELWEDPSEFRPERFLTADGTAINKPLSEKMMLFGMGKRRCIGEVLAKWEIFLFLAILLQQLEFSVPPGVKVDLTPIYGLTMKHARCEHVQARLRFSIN
# [31] = AUC (0 to infinity) in rabbit at 0.81 mg/kg, iv; format: ADME, organism-based, Oryctolagus cuniculus; set-up: time infinity, route intravenous, dose 0.81 mg/kg; conditions: in vivo
# Cytochrome P450 2C19 [32] = molecular target: T2, Cytochrome P450 2C19 (Homo sapiens, UniProt P33261); test: Inhibition of CYP2C19 in human liver microsome using mephenytoin as substrate; format: ADME, microsomes
# T2 sequence (P33261 whole entry): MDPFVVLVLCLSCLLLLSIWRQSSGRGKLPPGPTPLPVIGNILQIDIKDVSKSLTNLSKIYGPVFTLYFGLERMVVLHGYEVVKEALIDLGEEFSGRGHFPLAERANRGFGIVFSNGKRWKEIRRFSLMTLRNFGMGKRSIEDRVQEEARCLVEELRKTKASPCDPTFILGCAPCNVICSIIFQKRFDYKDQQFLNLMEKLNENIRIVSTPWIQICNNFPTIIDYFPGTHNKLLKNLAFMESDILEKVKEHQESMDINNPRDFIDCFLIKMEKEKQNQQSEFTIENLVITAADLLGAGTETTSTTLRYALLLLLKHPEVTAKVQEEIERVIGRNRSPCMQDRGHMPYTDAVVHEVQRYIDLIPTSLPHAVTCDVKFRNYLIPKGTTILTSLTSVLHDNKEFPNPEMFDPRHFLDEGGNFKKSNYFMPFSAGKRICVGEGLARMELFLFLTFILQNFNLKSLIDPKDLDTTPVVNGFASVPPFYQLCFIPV
# Cytochrome P450 2C19 [33] = molecular target: T2, Cytochrome P450 2C19; test: Drug metabolism assessed as human liver microsome CYP2C19-mediatd metabolism; format: ADME; conditions: microsomes
# [34] = Toxicity in rabbit assessed as morphological changes in aortic intima at 81 to 122 microg/kg, iv; set-up: species or system Oryctolagus cuniculus; conditions: in vivo, dose 81-122 µg/kg
# Salmonella typhimurium [35] = test: Mutagenecity in Salmonella typhimurium TA100 in presence of metabolic activation system at 1000 ug/ml by Ames test; format: toxicity, organism-based; conditions: salmonella enterica subsp. enterica serovar typhimurium; dose 1000 µg/ml
# Cytochrome P450 3A4 = Cytochrome P450 3A4 (Homo sapiens, UniProt P08684); test: Inhibition of CYP3A4 in human liver microsome using testosterone as substrate; format: ADME, microsomes
# Chain of Cytochrome P450 3A4 (P08684 whole entry): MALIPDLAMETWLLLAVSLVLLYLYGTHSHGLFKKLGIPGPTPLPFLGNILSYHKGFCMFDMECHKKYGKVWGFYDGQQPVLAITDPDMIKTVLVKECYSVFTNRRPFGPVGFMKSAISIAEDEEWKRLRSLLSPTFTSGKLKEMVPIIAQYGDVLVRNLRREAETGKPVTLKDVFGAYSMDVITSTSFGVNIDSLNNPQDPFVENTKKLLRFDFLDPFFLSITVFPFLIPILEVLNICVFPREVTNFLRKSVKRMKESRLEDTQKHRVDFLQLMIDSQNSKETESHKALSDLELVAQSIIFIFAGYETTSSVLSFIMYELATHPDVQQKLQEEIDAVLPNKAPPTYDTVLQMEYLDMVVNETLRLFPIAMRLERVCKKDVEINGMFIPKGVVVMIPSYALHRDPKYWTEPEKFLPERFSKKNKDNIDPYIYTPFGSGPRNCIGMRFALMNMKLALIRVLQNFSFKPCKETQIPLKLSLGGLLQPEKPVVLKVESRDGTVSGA
smiles,measurement,setting,value
CC[C@H](C)[C@@H]([C@@H](CC(=O)N1CCC[C@H]1[C@H](OC)[C@@H](C)C(=O)N[C@H](C)[C@@H](O)c1ccccc1)OC)N(C)C(=O)[C@@H](NC(=O)[C@H](C(C)C)N(C)C(=O)OCc1ccc(NC(=O)[C@H](CCCNC(N)=O)NC(=O)[C@@H](NC(=O)CCCc2cn(CCCNC(=O)[C@H](Cc3ccc(O)cc3)NC(=O)[C@H](Cc3ccccc3)NC(=O)CCC(=O)NCCCCCC(=O)N(CCCC[C@H](NC(=O)N[C@@H](CCC(=O)O)C(=O)O)C(=O)O)Cc3cccc(Cl)c3)nn2)C(C)C)cc1)C(C)C ({GluureaLys(ε-3-ClBenzyl)-Ahx-Suc}-FY[X1]V[Cit][PABC][NMeV]V[Dil][Dolaproine]-X2),Activity,[1],Non-Toxic
same,Activity,Salmonella typhimurium [2],Non-Toxic
same,mortality at 4 day,[3],100%
same,Activity,[4],Non-Toxic
same,Activity,[5],Non-Toxic
same,Activity,[6],Non-Toxic
same,Activity,[7],Non-Toxic
same,Activity,[8],Toxic
same,Activity,Salmonella typhimurium [9],Non-Toxic
same,Activity,[10],Non-Toxic
same,Activity,[11],Non-Toxic
same,Activity,[12],Toxic
same,Activity,[13],Non-Toxic
same,k el,[14],4.17e-05 s⁻¹
same,Activity,CWR22R,Active
same,Activity,[15],Non-Toxic
same,mortality at 72 h,[16],90%
same,half-life,[17],34.3 min
same,Activity,Salmonella typhimurium [18],Non-Toxic
same,Activity,[19],Non-Toxic
same,Activity,Salmonella typhimurium [20],Non-Toxic
same,inhibition in vivo at 0.3 mg/kg,[21],37.7%
same,Activity,[22],Non-Toxic
same,inhibition in vivo at 0.3 mg/kg,[23],77.4%
same,Activity,Salmonella typhimurium [24],Non-Toxic
same,Activity,[25],Toxic
same,Activity,Salmonella typhimurium [26],Non-Toxic
same,Ratio,[27],13%
same,half-life,[28],27.4 min
same,Activity,Salmonella typhimurium [29],Non-Toxic
same,Activity,[30],Toxic
same,IC50,Cytochrome P450 1A2,> 25 µM
same,AUC(0-inf),[31],35000 ng·h/mL
same,IC50,Cytochrome P450 2C19 [32],> 25 µM
same,Drug metabolism,Cytochrome P450 2C19 [33],Metabolite_Notdetected
same,Activity,[34],Non-Toxic
same,Activity,Salmonella typhimurium [35],Non-Toxic
same,IC50,Cytochrome P450 3A4,11.2 µM
